Nine compounds from patent US20080004266A1, “Method for treating proliferative disorders associated with protooncogene products” (priority 2006, published 2008) can be followed below.

Data set [1] deals with c-kit. As to the kind of experiment: FACS-based c-kit degradation assay in HEL92.1.7 cells. In kind it is cell-based. The settings on record: about 18 h, compounds at 0.5 and 0.05 μM, 17-AAG at 0.5 μM. How it is done: (§1) Two leukemia cell lines, HEL92.1.7 and Kasumi-1, were used for testing c-kit degradation induced by Hsp90 inhibitors of the invention. […] The cells were collected and centrifuged (SORVALL RT 6000D) at 1200 rpm for 5 min. The supernatants were discarded, and the cells were washed one time with 1×PBS. After centrifugation the cells were stained with FITC conjugated c-kit antibody (MBL International, Cat# K0105-4) in […] 1×PBS at 4° C. for 1 h. The samples were read and analysized with FACSCalibur flow cytometer (Becton Dicknson).

Data set [2] concerns c-kit. As to the kind of experiment: FACS-based c-kit degradation assay in Kasumi-1 cells. Type of data set: cell-based, human. The settings on record: about 18 h, compounds at 0.5 and 0.05 μM, 17-AAG at 0.5 μM. The procedure: as §1
Data set [3] relates to c-Kit tyrosine kinase receptor (N822K mutation). In words: Western blot analysis of c-Kit in Kasumi-1 cells. Type of data set: cell-based, human. The settings on record: 100 nM and 400 nM. From the text: The results of the FACS analysis were confirmed with Western blot analysis (see FIG. 5). […] In contrast, 17-AAG had no effect of c-Kit protein levels.
On the technique in general: Immunoblotting shows a protein as a band on a membrane.

A further data set concerns phosphorylated Bcr-Abl. As to the kind of experiment: Degradation of Bcr-Abl in KU812 cells (Western blot). In kind it is cell-based. The settings on record: 18 hours. The procedure:
KU812 chronic myeloid leukemia cells (ATCC) (2×10^6 cells), which harbor the Philadelphia chromosome that produces Bcr-Abl tyrosine kinase, were treated (0.1 μM and 1.0 μM) with either Compound 226, 17-AAG or 17-DMAG. After 18 hours, the cells were lysed with 1× lysis buffer, and a western blot was perform using anti-BCR-ABL antibody to detect phosphorylated Bcr-Abl.

In another data set the test system is A375 cells (B-raf V600E). In words: Cell survival in A375 melanoma cells (Cell Counting Kit-8). The settings on record: 72 hours. Type of data set: cell-based, human. How it is done:
Human melanoma cell line, A375 (2×10^6 cells), which contains the V600E mutation in the B-raf protein that confers constitutive […] kinase activity, was obtained from American Type Culture Collection. A375 cells (20,000 cells/well) were cultured in 96-well plates and maintained at 37° C. for several hours. The cells were incubated at 37° C. for 72 hours with various concentrations of compound 226, 17AAG or 17DMAG. 17AAG and 17DMAG are Hsp90 inhibitors that are currently in clinical trials and are used here as positive controls for Hsp90 inhibition. Cell survival was measured with Cell Counting Kit-8 (Dojindo Laboratories, Cat # CK04).

Data set [4] has as its system Karpas-299 cells (NPM-ALK). In words: Cell survival in Karpas-299 cells (Cell Counting Kit-8). Type of data set: cell-based, human. The settings on record: 72 hours. How it is done:
Growth of this tumor cell line is dependent upon the expression of the NPM-ALK fusion protein. Karpas-299 cells (20,000 cells/well) were cultured in 96-well plates and maintained at 37° C. for several hours. The cells were incubated at 37° C. for 72 hours with various concentrations of compound 226 of the invention, 17AAG, and 17DMAG. 17AAG and 17DMAG are Hsp90 inhibitors that are currently in clinical trials and are used here as positive controls for Hsp90 inhibition. Cell survival was measured with Cell Counting Kit-8 (Dojindo Laboratories, Cat # CK04).

Data set [5] has as its system human tumor cell line MDA-MB-435S. In words: MDA-MB-435S nude mouse xenograft model. Type of data set: in vivo. The settings on record: nude mice, 300 mg/kg body weight IP, 5 times per week for 3 weeks, versus vehicle. The procedure:
FBS was obtained from Sigma-Aldrich Corp. (St. Louis, Mo., USA), and all other reagents were obtained from Invitrogen Corp. (Carlsbad, Calif., USA). Approximately 4−5×10 (6) cells that had been cryopreserved in liquid nitrogen were rapidly thawed at 37° C. and transferred to a 175 cm^2 tissue culture flask containing 50 ml of growth media and then incubated at 37° C. in a 5% CO2 incubator. The growth media was replaced every 2-3 days until the flask became 90% confluent, typically in 5-7 days. To passage and expand the cell line, a 90% confluent flask was washed with 10 ml of room temperature phosphate buffered saline (PBS) and the cells were disassociated by adding 5 ml 1× Trypsin-EDTA (Invitrogen) and incubating at 37° C. until the cells detached from the surface of the flask. To inactivate the trypsin, 5 ml of growth media was added and then the contents of the flask were centrifuged to pellet the cells. The supernatant was aspirated and the cell pellet was resuspended in 10 ml of growth media and the cell number determined using a hemocytometer. […]
Six to eight week old, female Crl:CD-1-nuBR (nude) mice were obtained from Charles River Laboratories (Wilmington, Mass., USA). […] Tumor volumes (V) were calculated by caliper measurement of the width (W), length (L) and thickness (T) of tumors using the following formula: V=[…]×(L×W×T). […]

Another data set deals with MV 4-11 cells (FLT3-ITD). In words: Cell survival in MV-4-11 cells (Cell Counting Kit-8). In kind it is cell-based, human. The settings on record: Homo sapiens, MV4-11, 72 hours. How it is done:
Human acute myelogenous leukemia (AML) cell line, MV 4-11 (ATCC #CRL-9591), was obtained from the American Type Culture Collection (ATCC; Manassas, Va., USA). Growth of this tumor cell line is dependent upon the expression of an activated form of the FLT3 tyrosine kinase receptor carrying an internal tandem duplication (ITD) mutation, which is the most common molecular defect associated with AML (K. W. Yee et al., Blood 100:2941-2949, 2002). MV 4-11 cells (20,000 cells/well) were cultured in 96-well plates and maintained at 37° C. for several hours. The cells were incubated at 37° C. for 72 hours with various concentrations of compounds of the invention, 17AAG, or DMAG. 17AAG and DMAG are Hsp90 inhibitors that are currently in clinical trials and are used here as positive controls for Hsp90 inhibition. Cell survival was measured with Cell Counting Kit-8 (Dojindo Laboratories, Cat # CK04).
For orientation: Formazan colour is commonly taken as a measure of viable cells.

For data set [6], the system named is Kasumi-1 cells (c-Kit N822K). As to the kind of experiment: Cell survival in Kasumi-1 cells (Cell Counting Kit-8). In kind it is cell-based, human. The settings on record: Homo sapiens, 72 hours. The procedure:
Kasumi-1 cells (20,000 cells/well) were cultured in 96-well plates and maintained at 37° C. for several hours. […] 17AAG and DMAG are Hsp90 inhibitors that are currently in clinical trials and are used here as positive controls for Hsp90 inhibition. […] Cell survival was measured with Cell Counting Kit-8 (Dojindo Laboratories, Cat # CK04).

The subject of another data set is K562 cells (Bcr-Abl). In words: Cell survival in K562 cells (Cell Counting Kit-8). In kind it is cell-based, human. The settings on record: Homo sapiens, 72 hours. The procedure: Growth of this tumor cell line is dependent upon the expression of the Bcr-Abl fusion protein (C. Gambacarti-Passerini et al., Blood Cells Mol. Dis. 23:380-394, 1997). K562 cells (20,000 cells/well) were cultured in 96-well plates and maintained at 37° C. for several hours. […] 17AAG, DMAG, and Radicical are Hsp90 inhibitors that are currently in clinical trials and are used here as positive controls for Hsp90 inhibition. […] Cell survival was measured with Cell Counting Kit-8 (Dojindo Laboratories, Cat # CK04).

The IC50 is the concentration at which inhibition is half-maximal.

Entries after “also recorded” stand apart in the source; their conditions may differ.

For the compound `C=CCNC1=C2C[C@@H](C)C[C@H](OC)[C@H](O)[C@@H](C)/C=C(\C)[C@H](OC(N)=O)[C@@H](OC)/C=C\C=C(/C)C(=O)NC(=CC1=O)C2=O` [Compound 17-AAG, 17-allylamino-17-demethoxygeldanamycin, reference compound], the “c-kit degradation (c-kit positive population, FACS)” value (“c-kit degradation” for short) in the data set on c-kit [1] and in the data set on c-kit [2] was “could not induce c-kit degradation” each time. Also, in data set [3], the “c-Kit protein levels (Western blot)” value is on record as “no effect”.

As for `CO[C@H]1/C=C\C=C(/C)C(=O)NC2=CC(=O)C(NCCN(C)C)=C(C[C@@H](C)C[C@H](OC)[C@H](O)[C@@H](C)/C=C(\C)[C@@H]1OC(N)=O)C2=O` [Compound 17-DMAG], the “degradation of phosphorylated Bcr-Abl” value is given as “partial degradation” with phosphorylated Bcr-Abl (0.1 μM) and “complete degradation” in the data set on phosphorylated Bcr-Abl (1.0 μM).

For `CO[C@H]1/C=C\C=C(/C)C(=O)NC2=CC(=O)C(NCCN(C)C)=C(C[C@@H](C)C[C@H](OC)[C@H](O)[C@@H](C)/C=C(\C)[C@@H]1OC(N)=O)C2=O` [Compound 17DMAG, 17-(2-dimethylaminoethyl-1)amino-17-desmethoxygeldanamycin], the half-maximal inhibitory concentration (IC50) with A375 cells (B-raf V600E) is 4 nM; in data set [4], 62 nM.

With `CCc1cc(-c2nnc(S)n2-c2cccc3ccccc23)c(O)cc1O` [Compound 49, 3-(2,4-Di-hydroxy-5-ethyl-phenyl)-4-(naphthalen-1-yl)-5-mercapto-triazole], the “toxicity (effect on body weights)” value in data set [5] was “not toxic; also recorded: not associated with significant toxicity”.

For `CCc1cc(-c2nnc(S)n2-c2ccc(OC)c3c2ccn3C(C)C)c(O)cc1O` [Compound 188, 3-(2,4-Dihydroxy-5-ethyl-phenyl)-4-(1-isopropyl-7-methoxy-indol-4-yl)-5-mercapto-[1,2,4]triazole], the “c-kit degradation” value with c-kit [1] and with c-kit [2] was “induced c-kit degradation” throughout. For the same compound, the IC50 was determined as 25 nM in the data set with MV 4-11 cells (FLT3-ITD) and 72 nM in data set [6].

`CCCn1ccc2c(-n3c(S)nnc3-c3cc(C4CC4)c(O)cc3O)ccc(OC)c21` [Compound 205, 3-(2,4-di-hydroxy-5-cyclopropyl-phenyl)-4-(1-propyl-7-methoxy-indol-4-yl)-5-mercapto-[1,2,4] triazole] had an IC50 with MV 4-11 cells (FLT3-ITD) of 49 nM.

Consider `COc1ccc(-n2c(S)nnc2-c2cc(C(C)C)c(O)cc2O)c2ccn(C(C)C)c12` [Compound 208, 3-(2,4-di-hydroxy-5-isopropyl-phenyl)-4-(1-isopropyl-7-methoxy-indol-4-yl)-5-mercapto-[1,2,4] triazole], for which the values for the IC50 (in the data set on MV 4-11 cells (FLT3-ITD); in data set [6]) were 20 nM and 49 nM, respectively.

Take `CC(C)c1cc(-c2nnc(S)n2-c2ccc3c(ccn3C)c2)c(O)cc1O` [Compound 221, 3-(2,4-di-hydroxy-5-isopropyl-phenyl)-4-(N-methyl-indol-5-yl)-5-mercapto-[1,2,4] triazole]: the “c-kit degradation” value in the data set with c-kit [1] and in the data set on c-kit [2] was “induced c-kit degradation” each time. Moreover, the “c-Kit protein levels (Western blot)” value in [3] was “induced the degradation of c-Kit”.

In turn, `C[C@@H]1C[C@H]2O[C@@H]2/C=C\C=C\C(=O)Cc2c(Cl)c(O)cc(O)c2C(=O)O1` [Radicical, Radicicol] showed an IC50 with K562 cells (Bcr-Abl) of 331 nM. That is a sub-micromolar value.
